Measurements as given in patent US8829028B2, “5-HT4 receptor antagonists for the treatment of heart failure” (Serodus AS, priority 2002, dated 2014).

Key:
5-HT4 receptor [1] = biological target: T1, 5-HT4 receptor (Rattus norvegicus, UniProt Q62758); test: Antagonism of the serotonin inotropic response by 5-HT4 antagonists in post-MI rat papillary muscle (reversal, curve shift, Schild Kb); type: cell-based
T1 construct: The papillary muscles were mounted in organ baths; from tissue; host or cells: rat posterior left ventricular papillary muscle (post-MI or aortic-banding heart failure)
T1 sequence (Q62758 whole entry): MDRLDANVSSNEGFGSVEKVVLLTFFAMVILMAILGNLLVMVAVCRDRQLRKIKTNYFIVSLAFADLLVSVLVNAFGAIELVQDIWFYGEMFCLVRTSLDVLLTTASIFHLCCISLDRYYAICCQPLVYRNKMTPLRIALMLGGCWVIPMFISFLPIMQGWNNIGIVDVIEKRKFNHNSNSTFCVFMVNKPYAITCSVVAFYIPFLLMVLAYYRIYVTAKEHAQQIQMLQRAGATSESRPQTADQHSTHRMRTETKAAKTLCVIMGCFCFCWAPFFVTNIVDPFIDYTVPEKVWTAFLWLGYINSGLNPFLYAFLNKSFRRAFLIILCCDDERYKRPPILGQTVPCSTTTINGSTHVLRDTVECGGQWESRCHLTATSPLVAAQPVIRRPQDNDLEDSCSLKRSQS
Protocol: The muscles were field stimulated with alternating polarity at 1 Hz with impulses of 5 msec duration and current about 20% above individual threshold (10-15 mA, determined in each experiment). The isometrically contracting muscles were stretched to the maximum of their length-tension curve. The force was recorded and analysed as previously described (Skomedal et al., 1997, J. Pharmacol. Exp. Ther. 280: 721-729). The muscles were allowed to equilibrate for 90 minutes. […] Averaged contraction-relaxation cycles (CRC) were calculated for different experimental periods, and these cycles were used to determine descriptive parameters like maximal development of force (dF/dt)max, time to peak force (TPF) and time to relaxation to 20% level (TR2O). Relaxation time (RT) was calculated as TR2O-TPF. (dF/dt)max was used as an index of contractility. Inotropic responses induced by agonists were expressed by increase in (dF/dt)max. RT was used as index of relaxation. Lusitropic responses were expressed as reduction in RT. Mechanical response at the end of the equilibrium period was used as the control response.
Agonist was added cumulatively or as a single bolus directly to the organ baths and was completely mixed in the solution within 2-3 seconds. […] The different agonists were added directly to the organ baths in increasing concentrations until supramaximal concentrations of agonist were obtained with respect to maximal inotropic response.
The responses for each concentration of agonist were generally calculated as percent of maximal response. The concentration-response curves constructed from papillary muscle experiment were constructed according to Ariens and Simonis (1964, supra), by estimating centiles (EC10 to EC100) for each single experiment and calculating the corresponding means. This calculation provides mean curves that express the response as fractional response or percent of maximum and display horizontal positioning and the correct mean slope of the curves. The horizontal positioning of the concentration-response curves was expressed as pEC50-values (=−log EC50). Data are expressed as mean±standard error of the mean (SEM) and the number of animals expressed as n. The significance levels of differences were calculated according to Students t-test. P<0.05 is considered statistically significant. The inhibition constants Kb were calculated from the Schild equation, based on the relative shifts of the concentration-response curves for receptor stimulation.

5-HT4 receptor [2] = biological target: T1, 5-HT4 receptor; test: 5-HT4 receptor-mediated inotropic response in papillary muscle of CHF rat 6 weeks after aortic banding; type: cell-based; conditions: 1 μM GR113808 after 10 μM serotonin
Protocol: Trans-aortic constriction (aortic banding) of the ascending aorta was induced in 200 g male Wistar rats under anaesthesia, induced by 63% N2O, 32% O2 and 5% Isoflurane and maintained by 66% N2O, 33% O2 and 1-2% Isoflurane. A right-sided thoracotomi was performed through a 3-4 cm long cutaneous incision, the pericardium was opened and the ascending aorta identified and dissected free of surrounding tissue. A ligature was knit around the ascending aorta and a metal probe with diameter 0.9 mm. The metal probe was then removed. The result was a constriction of the ascending aorta with internal diameter about 0.9 mm. The thorax was then closed with 3-0 silk sutures and the skin closed with Dexon 1 sutures. […]
Papillary muscle was extracted from a CHF rat 6 weeks after aortic banding as described above. osterior left ventricular papillary muscle was prepared, mounted in organ bath, equilibrated and field stimulated at 1 Hz (Sjaastad et al. 2003 supra), and the contraction-relaxation cycles (CRCs) were recorded and analysed as previously described (Skomedal et al. 1997, J. Pharmacol Exp Ther 280: 721-729) (Sjaastad et al., 2003, supra) with respect to maximal developed force (Fmax), maximal development of force (dF/dt)max, time to peak force (TPF), time to relaxation to 20% level (TR20) and relaxation time (RT=TR20-TPF).

5-HT4 receptor [3] = biological target: T2, 5-HT4 receptor (Homo sapiens, UniProt Q13639); conditions: Gale et al., 1994; cited from earlier work
T2 sequence (Q13639 whole entry): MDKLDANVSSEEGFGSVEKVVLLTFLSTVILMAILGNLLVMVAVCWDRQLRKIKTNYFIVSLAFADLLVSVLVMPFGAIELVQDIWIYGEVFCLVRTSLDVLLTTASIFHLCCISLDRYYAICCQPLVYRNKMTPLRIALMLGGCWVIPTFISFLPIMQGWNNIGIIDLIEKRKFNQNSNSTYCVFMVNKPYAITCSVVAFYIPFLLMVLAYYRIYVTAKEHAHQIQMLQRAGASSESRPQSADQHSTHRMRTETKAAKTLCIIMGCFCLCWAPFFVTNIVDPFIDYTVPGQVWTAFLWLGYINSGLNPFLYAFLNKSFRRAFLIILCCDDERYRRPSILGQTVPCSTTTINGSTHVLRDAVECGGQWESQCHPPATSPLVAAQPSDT

5-HT4 receptor [4] = biological target: T2, 5-HT4 receptor; test: Inotropic response in trabecular muscle from explanted post-infarct human heart; type: cell-based; design: Trabecular muscles were prepared, mounted in organ baths; from tissue; host or cells: trabecular muscle from explanted human hearts (post-infarct; dilated cardiomyopathy); conditions: 1 μM GR113808 after 10 μM serotonin
Protocol: The heart was explanted from a patient who had survived a small myocardial infarction and died in hospital from subarachnoidal haemorrhage. Trabecular muscles were prepared, mounted in organ baths, equilibrated and field stimulated at 1 Hz (Skomedal et al., 1997, supra) and the contraction-relaxation cycles (CRCs) were recorded and analysed as previously described (Skomedal et al., 1997, supra) with respect to maximal developed force (Fmax), maximal development of force (dF/dt)max, time to peak force (TPF), time to relaxation to 20% level (TR20) and relaxation time (RT=TR20-TPF).

5-HT4 receptor [5] = biological target: T2, 5-HT4 receptor; test: Inotropic response in trabecular muscle from explanted human heart with dilated cardiomyopathy (IBMX present); type: cell-based; design: Trabecular muscles were prepared, mounted in organ baths; from tissue; host or cells: trabecular muscle from explanted human hearts (post-infarct; dilated cardiomyopathy); conditions: 1 μM GR113808 after 10 μM serotonin; IBMX 35 μM

Cn1cc(C(=O)OCC2CCN(CCNS(C)(=O)=O)CC2)c2ccccc21 [GR113808, {1-[2-(methyl-sulphonylamino)ethyl]-4-piperidinyl}methyl 1-methyl-1H-indole-3-carboxylate]
Kb (5-HT4 receptor [1]): 0.5 nM
reversal of the inotropic response evoked by 10 μmol/l serotonin (5-HT4 receptor [1]): completely reversed
reversal of the serotonin-induced shortening of the contraction-relaxation cycles (5-HT4 receptor [1]): not completely reversed
reversal of the positive inotropic response to serotonin (5-HT4 receptor [2]): reversed
pKi (5-HT4 receptor [3]): 9.2-9.7
reversal of the positive inotropic response to serotonin (5-HT4 receptor [4]): reversed
reversal of the positive inotropic response to serotonin (5-HT4 receptor [5]): reversed
